Experimental data as given in patent US20230270825A1, “STAPLED OLEFIN CO-AGONISTS OF THE GLUCAGON AND GLP-1 RECEPTORS” (Merck Sharp & Dohme LLC, priority 2019, published 2023).
Numbered stars: 1 amine (or outer) side, 2 acyl side, 3 side chain; on linkers, the order of the positions; unused ones are H or OH. Bridge positions count the residues as written; N and C are the ends. Square brackets hold non-standard residues; d marks the D form. Side chains are listed from the residue outwards. Peptide text beside a SMILES is read from it. * marks the point of attachment. Nle(6-ylidene) = O=C([C@H](CCCC=[*:3])N[*:1])[*:2]; S7 = C[C@@](CCCCCC=[*:3])(N[*:1])C(=O)[*:2]; X1 = C[C@](CCCCC=[*:3])(N[*:1])C(=O)[*:2]; γGlu = O=C(O)[C@H](CCC(=O)[*:2])N[*:1]; Palmitoyl = CCCCCCCCCCCCCCCC(=O)*; Aib = CC(C)(N)C(=O)O

Biological target: T1, human GCGR (Homo sapiens, UniProt P47871)
T1 construct: expressed in transfected cells; assay-ready frozen cells grown with Blasticidin and Hygromycin
T1 sequence (P47871 26-477): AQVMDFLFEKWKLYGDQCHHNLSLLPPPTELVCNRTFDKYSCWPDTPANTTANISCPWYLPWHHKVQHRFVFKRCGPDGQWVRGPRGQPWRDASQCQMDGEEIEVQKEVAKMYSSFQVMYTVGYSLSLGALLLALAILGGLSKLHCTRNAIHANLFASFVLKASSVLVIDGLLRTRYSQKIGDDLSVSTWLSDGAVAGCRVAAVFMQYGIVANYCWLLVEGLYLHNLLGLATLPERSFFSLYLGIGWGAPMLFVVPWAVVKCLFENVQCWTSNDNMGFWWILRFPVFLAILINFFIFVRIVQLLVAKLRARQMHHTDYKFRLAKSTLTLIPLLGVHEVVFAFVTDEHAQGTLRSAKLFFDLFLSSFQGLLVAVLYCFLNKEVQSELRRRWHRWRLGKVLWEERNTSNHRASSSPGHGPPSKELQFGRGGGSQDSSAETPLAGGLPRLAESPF
Test: cAMP activity assay, cells expressing human GCGR (HitHunter cAMP XS)
Type: cell-based
Conditions: for hGCGR/hGLP1R (hTone): ratio of human GCGR EC50 to human GLP1R EC50; for EC50: cAMP production, 1 hour at room temperature, assay buffer with or without 20% human serum (not stated which)
Protocol: Activity of the peptides at the Glucagon receptor (GCGR) and GLP-1 receptor (GLP1R) was measured in a cAMP activity assay.
Peptides were dissolved in 100% DMSO and serially diluted to generate 10 point titrations. The peptide solutions were then transferred into 384-well assay plates (150 nL/well).
Assay ready frozen cells expressing human GLP1R or human GCGR were suspended in growth media consisting of DMEM medium (GIBCO), 10% FBS (GIBCO), 1x NEAA(GIBCO), 1x P/S (GIBCO), 10ug/ml Blasticidin (GIBCO) and 200 µg/mL Hygromycin (GIBCO). Cells were then diluted in assay buffer consisting of PBS (GIBCO), 7.5% BSA (Perkin Elmer), 100 µM RO 20-1724 (Sigma), with or without 20% human serum (MP Biomedical). The cell suspensions (15 µL) were then added to the assay plates containing the peptide solutions (30,000 cells/well for human GCGR; 10.000 cells/well for human GLP1R). The cells were incubated for 1 hour at room temperature in the dark. Production of cAMP was determined using HitHunter™ cAMPXS kits (DiscoverX) following manufacturer protocol. The plates were incubated for overnight at room temperature in the dark. Luminescence was measured using an EnVision Multilabel plate reader (Perkin Elmer). Native GLP-1 and Glucagon (Bachem) are used as control peptides. EC50 values were calculated using uses a 4 parameter logistic fit based on the Levenberg-Marquardt algorithm.

With CC(C)C[C@H](NC(=O)[C@H](Cc1ccc(O)cc1)NC(=O)[C@H](CCCCN)NC(=O)[C@H](CO)NC(=O)[C@H](CCCCN)NC(=O)[C@H](CC(=O)O)NC(=O)[C@H](CO)NC(=O)[C@@H](NC(=O)[C@H](Cc1ccccc1)NC(=O)[C@@H](NC(=O)CNC(=O)[C@H](CCC(N)=O)NC(=O)[C@@H](CO)NC(=O)[C@@H](N)Cc1c[nH]cn1)[C@@H](C)O)[C@@H](C)O)C(=O)N[C@@H](CC(=O)O)C(=O)N[C@@H](CCC(=O)O)C(=O)N[C@@H](CCCNC(=N)N)C(=O)N[C@@H](C)C(=O)N[C@@H](C)C(=O)N[C@H]1CCCC=CCCC[C@@H](C(=O)N[C@@H](Cc2c[nH]c3ccccc23)C(=O)N[C@@H](CC(C)C)C(=O)N[C@@H](CC(C)C)C(=O)N[C@@H](CC(=O)O)C(=O)N[C@H](C(N)=O)[C@@H](C)O)NC(=O)[C@H](C(C)C)NC(=O)[C@H](Cc2ccccc2)NC(=O)[C@H](CC(=O)O)NC1=O [compound 17] (H-H[dS]QGTFTSDKSKYLDERAA[Nle(6-ylidene)]DFV[Nle(6-ylidene)]WLLDT-NH2; staple 20-24) the “hGCGR/hGLP1R (hTone)” value was 1.42.
For CC(C)C[C@H](NC(=O)[C@H](Cc1ccc(O)cc1)NC(=O)[C@H](CCCCN)NC(=O)[C@H](CO)NC(=O)[C@H](CCCCN)NC(=O)[C@H](CC(=O)O)NC(=O)[C@H](CO)NC(=O)[C@@H](NC(=O)[C@H](Cc1ccccc1)NC(=O)[C@@H](NC(=O)CNC(=O)[C@H](CCC(N)=O)NC(=O)[C@@H](CO)NC(=O)[C@@H](N)Cc1c[nH]cn1)[C@@H](C)O)[C@@H](C)O)C(=O)N[C@@H](CC(=O)O)C(=O)N[C@@H](CCC(=O)O)C(=O)N[C@@H](CCCNC(=N)N)C(=O)N[C@@H](C)C(=O)N[C@@H](C)C(=O)N[C@]1(C)CCCCC=CCCCCC[C@@](C)(C(=O)N[C@@H](CC(=O)O)C(=O)N[C@H](C(N)=O)[C@@H](C)O)NC(=O)[C@H](CC(C)C)NC(=O)[C@H](Cc2c[nH]c3ccccc23)NC(=O)[C@H](CCC(N)=O)NC(=O)[C@H](C(C)C)NC(=O)[C@H](Cc2ccccc2)NC(=O)[C@H](CC(=O)O)NC1=O [compound 11] (H-H[dS]QGTFTSDKSKYLDERAA[X1]DFVQWL[S7]DT-NH2; staple 20-27), the EC50 was 5 nM and the “hGCGR/hGLP1R (hTone)” value was 1.82.
With CCCCCCCCCCCCCCCC(=O)N[C@@H](CCC(=O)N[C@@H](CCC(=O)NCCCC[C@H](NC(=O)[C@H](CC(=O)O)NC(=O)[C@H](CO)NC(=O)[C@@H](NC(=O)[C@H](Cc1ccccc1)NC(=O)[C@@H](NC(=O)CNC(=O)[C@H](CCC(N)=O)NC(=O)C(C)(C)NC(=O)[C@@H](N)Cc1c[nH]cn1)[C@@H](C)O)[C@@H](C)O)C(=O)N[C@@H](CO)C(=O)N[C@@H](CCCCN)C(=O)N[C@@H](Cc1ccc(O)cc1)C(=O)N[C@@H](CC(C)C)C(=O)N[C@@H](CC(=O)O)C(=O)NC(C)(C)C(=O)N[C@@H](CCCNC(=N)N)C(=O)N[C@@H](C)C(=O)N[C@@H](C)C(=O)N[C@@H](CCC(N)=O)C(=O)N[C@]1(C)CCCCC=CCCCCC[C@@](C)(C(=O)N[C@H](C(=O)N[C@@H](CCCCN)C(=O)N[C@@H](CCC(N)=O)C(=O)O)[C@@H](C)O)NC(=O)[C@H](CCSC)NC(=O)[C@H](CC(C)C)NC(=O)[C@H](Cc2c[nH]c3ccccc23)NC(=O)[C@H](CCC(N)=O)NC(=O)[C@H](C(C)C)NC(=O)[C@H](Cc2ccccc2)NC1=O)C(=O)O)C(=O)O [compound 13] (H-H[Aib]QGTFTSDK([γGlu-γGlu-Palmitoyl])SKYLD[Aib]RAAQ[X1]FVQWLM[S7]TKQ-OH; staple 21-28) the EC50 was 5 nM and the “hGCGR/hGLP1R (hTone)” value was 19.11.
With CCCCCCCCCCCCCCCC(=O)N[C@@H](CCC(=O)N[C@@H](CCC(=O)NCCCC[C@H](NC(=O)[C@H](CC(=O)O)NC(=O)[C@H](CO)NC(=O)[C@@H](NC(=O)[C@H](Cc1ccccc1)NC(=O)[C@@H](NC(=O)CNC(=O)[C@H](CCC(N)=O)NC(=O)[C@@H](CO)NC(=O)[C@@H](N)Cc1c[nH]cn1)[C@@H](C)O)[C@@H](C)O)C(=O)N[C@@H](CO)C(=O)N[C@@H](CCCCN)C(=O)N[C@@H](Cc1ccc(O)cc1)C(=O)N[C@@H](CC(C)C)C(=O)N[C@@H](CC(=O)O)C(=O)N[C@@H](CCC(=O)O)C(=O)N[C@@H](CCCNC(=N)N)C(=O)N[C@@H](C)C(=O)N[C@@H](C)C(=O)N[C@H]1CCCC=CCCC[C@@H](C(=O)N[C@@H](Cc2c[nH]c3ccccc23)C(=O)N[C@@H](CC(C)C)C(=O)N[C@@H](CC(C)C)C(=O)N[C@@H](CC(=O)O)C(=O)N[C@H](C(N)=O)[C@@H](C)O)NC(=O)[C@H](C(C)C)NC(=O)[C@H](Cc2ccccc2)NC(=O)[C@H](CC(=O)O)NC1=O)C(=O)O)C(=O)O [compound 15] (H-H[dS]QGTFTSDK([γGlu-γGlu-Palmitoyl])SKYLDERAA[Nle(6-ylidene)]DFV[Nle(6-ylidene)]WLLDT-NH2; staple 20-24) the “hGCGR/hGLP1R (hTone)” value was 0.44.
In the case of CCCCCCCCCCCCCCCC(=O)N[C@@H](CCC(=O)N[C@@H](CCC(=O)NCCCC[C@H](NC(=O)[C@H](CC(=O)O)NC(=O)[C@H](CO)NC(=O)[C@@H](NC(=O)[C@H](Cc1ccccc1)NC(=O)[C@@H](NC(=O)CNC(=O)[C@H](CCC(N)=O)NC(=O)[C@@H](CO)NC(=O)[C@@H](N)Cc1c[nH]cn1)[C@@H](C)O)[C@@H](C)O)C(=O)N[C@@H](CO)C(=O)N[C@@H](CCCCN)C(=O)N[C@@H](Cc1ccc(O)cc1)C(=O)N[C@@H](CC(C)C)C(=O)N[C@@H](CC(=O)O)C(=O)N[C@@H](CCC(=O)O)C(=O)N[C@]1(C)CCCCC=CCCCCC[C@@](C)(C(=O)N[C@@H](Cc2c[nH]c3ccccc23)C(=O)N[C@@H](CC(C)C)C(=O)N[C@@H](CC(C)C)C(=O)N[C@@H](CC(=O)O)C(=O)N[C@H](C(N)=O)[C@@H](C)O)NC(=O)[C@H](C(C)C)NC(=O)[C@H](Cc2ccccc2)NC(=O)[C@H](CC(=O)O)NC(=O)[C@H](CCC(N)=O)NC(=O)[C@H](C)NC(=O)[C@H](C)NC1=O)C(=O)O)C(=O)O [compound 8] (H-H[dS]QGTFTSDK([γGlu-γGlu-Palmitoyl])SKYLDE[X1]AAQDFV[S7]WLLDT-NH2; staple 17-24), the EC50 is reported as 5 nM.
In the case of CCCCCCCCCCCCCCCC(=O)N[C@@H](CCC(=O)N[C@@H](CCC(=O)NCCCC[C@H](NC(=O)[C@H](CC(=O)O)NC(=O)[C@H](CO)NC(=O)[C@@H](NC(=O)[C@H](Cc1ccccc1)NC(=O)[C@@H](NC(=O)CNC(=O)[C@H](CCC(N)=O)NC(=O)C(C)(C)NC(=O)[C@@H](N)Cc1c[nH]cn1)[C@@H](C)O)[C@@H](C)O)C(=O)N[C@@H](CO)C(=O)N[C@@H](CCCCN)C(=O)N[C@@H](Cc1ccc(O)cc1)C(=O)N[C@@H](CC(C)C)C(=O)N[C@@H](CC(=O)O)C(=O)NC(C)(C)C(=O)N[C@@H](CCCNC(=N)N)C(=O)N[C@@H](C)C(=O)N[C@@H](C)C(=O)N[C@@H](CCC(N)=O)C(=O)N[C@@H](CC(=O)O)C(=O)N[C@@H](Cc1ccccc1)C(=O)N[C@H](C(=O)N[C@H]1CCCC=CCCC[C@@H](C(=O)N[C@H](C(=O)N[C@@H](CCCCN)C(=O)N[C@@H](CCC(N)=O)C(=O)O)[C@@H](C)O)NC(=O)[C@H](CC(C)C)NC(=O)[C@H](CC(C)C)NC(=O)[C@H](Cc2c[nH]c3ccccc23)NC1=O)C(C)C)C(=O)O)C(=O)O [compound 16] (H-H[Aib]QGTFTSDK([γGlu-γGlu-Palmitoyl])SKYLD[Aib]RAAQDFV[Nle(6-ylidene)]WLL[Nle(6-ylidene)]TKQ-OH; staple 24-28), the “hGCGR/hGLP1R (hTone)” value is reported as 2.67.
CCCCCCCCCCCCCCCC(=O)N[C@@H](CCC(=O)N[C@@H](CCC(=O)NCCCC[C@H](NC(=O)[C@H](CC(=O)O)NC(=O)[C@H](CO)NC(=O)[C@@H](NC(=O)[C@H](Cc1ccccc1)NC(=O)[C@@H](NC(=O)CNC(=O)[C@H](CCC(N)=O)NC(=O)[C@@H](CO)NC(=O)[C@@H](N)Cc1c[nH]cn1)[C@@H](C)O)[C@@H](C)O)C(=O)N[C@@H](CO)C(=O)N[C@]1(C)CCCCC=CCCCCC[C@@](C)(C(=O)N[C@@H](CCC(N)=O)C(=O)N[C@@H](CC(=O)O)C(=O)N[C@@H](Cc2ccccc2)C(=O)N[C@H](C(=O)N[C@@H](CCC(N)=O)C(=O)N[C@@H](Cc2c[nH]c3ccccc23)C(=O)N[C@@H](CC(C)C)C(=O)N[C@@H](CC(C)C)C(=O)N[C@@H](CC(=O)O)C(=O)N[C@H](C(N)=O)[C@@H](C)O)C(C)C)NC(=O)[C@H](C)NC(=O)[C@H](CCCNC(=N)N)NC(=O)[C@H](CCC(=O)O)NC(=O)[C@H](CC(=O)O)NC(=O)[C@H](CC(C)C)NC(=O)[C@H](Cc2ccc(O)cc2)NC1=O)C(=O)O)C(=O)O [compound 7] (H-H[dS]QGTFTSDK([γGlu-γGlu-Palmitoyl])S[X1]YLDERA[S7]QDFVQWLLDT-NH2; staple 12-19) showed an EC50 of 5 nM.
Work on CC(C)C[C@H](NC(=O)[C@H](Cc1ccc(O)cc1)NC(=O)[C@H](CCCCN)NC(=O)[C@H](CO)NC(=O)[C@H](CCCCN)NC(=O)[C@H](CC(=O)O)NC(=O)[C@H](CO)NC(=O)[C@@H](NC(=O)[C@H](Cc1ccccc1)NC(=O)[C@@H](NC(=O)CNC(=O)[C@H](CCC(N)=O)NC(=O)[C@@H](CO)NC(=O)[C@@H](N)Cc1c[nH]cn1)[C@@H](C)O)[C@@H](C)O)C(=O)N[C@@H](CC(=O)O)C(=O)N[C@@H](CCC(=O)O)C(=O)N[C@]1(C)CCCCC=CCCCCC[C@@](C)(C(=O)N[C@@H](Cc2c[nH]c3ccccc23)C(=O)N[C@@H](CC(C)C)C(=O)N[C@@H](CC(C)C)C(=O)N[C@@H](CC(=O)O)C(=O)N[C@H](C(N)=O)[C@@H](C)O)NC(=O)[C@H](C(C)C)NC(=O)[C@H](Cc2ccccc2)NC(=O)[C@H](CC(=O)O)NC(=O)[C@H](CCC(N)=O)NC(=O)[C@H](C)NC(=O)[C@H](C)NC1=O [compound 9] (H-H[dS]QGTFTSDKSKYLDE[X1]AAQDFV[S7]WLLDT-NH2; staple 17-24) yielded an EC50 of 5 nM.
